How the values were obtained:
Assay type in all cases: cell-based
Settings in all cases: MTT assay, 72 hour incubation
LIM1215 cell line = test: MTT cytotoxicity assay, LIM1215
Procedure: (§1) Tumor cell lines were maintained in RPMI1640 medium supplemented with 10% heat-inactivated fetal bovine serum, 2 mM L-glutamine and 1 mM sodium pyruvate. 1800 cells per well were seeded in a volume of 180 μl in a 96-well flat bottom polystyrene plate. The cells were allowed to adhere overnight at 37° C. in a CO2 incubator. Ligands were initially formulated in DMSO, and stocks stored at −80° C. They were then further formulated at lox concentration in RPMI1640 medium. 20 ul of diluted samples were added into each treatment well. On each plate, blank wells with no cells, and untreated wells containing cells, were included. Plates were then cultured at 37° C. in a CO2 incubator for 72 hrs. Cytotoxicity was evaluated using a tetrazolium salt-based assay, the MTT assay. After 72 hours, the supernatant was removed from each well and 200 μl of a sterile filtered 500 μg/ml MTT solution in water added to each well. The plates were then incubated at 37° C. in a CO2 incubator for 4 hrs. The supernatant was then removed and the formazan crystals formed solubilized by adding 150 μl of DMSO to each well. The plate was then read on a plate reader at 540 nm, and percentage cell survival calculated as follows: ((mean absorbance treated wells at concentration x−mean absorbance blank wells)[…](mean absorbance untreated wells at concentration x−mean absorbance blank wells))×100. Data were plotted as concentration in nM vs. % cell survival in Microsoft Excel, and IC50 values (concentration where cell survival is reduced by a half) were determined from the graph.

SW48 cell line = test: MTT cytotoxicity assay, SW48
Procedure: as §1

SW620 cell line = test: MTT cytotoxicity assay, SW620
Procedure: as §1

COc1cc2c(cc1OCc1cccc(CC(=O)N3C[C@@H](C)c4c3cc(O)c3ccccc43)c1)NC(=O)[C@@H]1CCCCN1C2=O [Compound 143, (S)-3-((3-(2-((S)-5-Hydroxy-1-methyl-1,2-dihydro-3H-benzo[e]indol-3-yl)-2-oxoethyl)benzyl)oxy)-2-methoxy-7,8,9,10-tetrahydrobenzo[e]pyrido[1,2-a][1,4]diazepine-6,12(5H,6aH)-dione]
Not active: Cytotoxicity LIM1215 (72 hours) (LIM1215 cell line) | Cytotoxicity SW48 (72 hrs) (SW48 cell line) | Cytotoxicity SW620 (72 hours) (SW620 cell line)

— US20240002379A1, “ASYMMETRIC CONJUGATE COMPOUNDS” (Pheon Therapeutics Ltd., priority 2016, published 2024)
